What was measured:
[1] = test system: rat; details: Subchronic dermal toxicity, sprague dawley, Topical, dose end: 13 week, group: systemic, systemic / pathology microscopic / liver / inflammation + systemic / pathology microscopic / liver / necrosis + systemic / in life …
[2] = test system: rat; details: Sub-acute repeat dose toxicity; fischer; Oral; Gavage/Intubation; dose end: 16 day; group: systemic; systemic / pathology microscopic / stomach / hyperkeratosis + systemic / pathology microscopic / stomach / hyperplasia + systemic / …
[3] = test system: rat; details: Carcinogenicity, fischer, Oral, Gavage/Intubation, dose end: 103 week, group: systemic
[4] = test system: mouse; details: Sub-acute repeat dose toxicity; b6c3f1; Oral; Gavage/Intubation; dose end: 16 day; group: systemic; systemic / pathology gross / stomach / erosion + systemic / pathology gross / stomach / ulcer + systemic / pathology microscopic / stomach…
[5] = test system: rat; details: Prenatal developmental toxicity study, sprague dawley, Oral, Gavage/Intubation, dose end: 15 GD
[6] = test system: rat; details: Subchronic oral toxicity in rodents, fischer, Gavage/Intubation, dose end: 13 week, group: systemic
[7] = test system: mouse; details: Subchronic oral toxicity in rodents, b6c3f1, Gavage/Intubation, dose end: 13 week, group: systemic
[8] = test system: mouse; details: Carcinogenicity; b6c3f1; Oral; Gavage/Intubation; dose end: 103 week; group: systemic; systemic / pathology microscopic / stomach / acanthosis + systemic / pathology microscopic / stomach / hyperkeratosis + systemic / pathology…
[9] = test system: mouse; details: Carcinogenicity, other, Oral, Feed, dose end: 104 week, group: systemic
[10] = test system: rat; details: Combined chronic toxicity/carcinogenicity, sprague dawley, Oral, Feed, dose end: 104 week, group: systemic
[11] = test system: dog; details: Chronic toxicity, beagle, Oral, Capsule, dose end: 52 week, group: systemic
[12] = test system: dog; details: Subchronic oral toxicity in nonrodent, beagle, Capsule, dose end: 93 day, group: systemic
[13] = test system: rat; details: Subchronic oral toxicity in rodents, sprague dawley, Feed, dose end: 13 week, group: systemic
[14] = test system: rat; details: Subchronic oral toxicity in rodents, fischer, Feed, dose end: 13 week, group: systemic, systemic / in life observation / body weight / body weight gain + systemic / pathology gross / urinary bladder / stones
[15] = test system: rat; details: Subchronic oral toxicity in rodents, fischer, Feed, dose end: 13 week, group: systemic
[16] = test system: rat; details: Carcinogenicity, fischer, Oral, Feed, dose end: 103 week, group: systemic
[17] = test system: rat; details: Subchronic oral toxicity in rodents, fischer, Feed, dose end: 13 week, group: systemic; remark: listed apart in the source
[18] = test system: mouse; details: Carcinogenicity; b6c3f1; Oral; Feed; dose end: 103 week; group: systemic; systemic / pathology gross / urinary bladder / stones + systemic / pathology microscopic / urinary bladder / hyperplasia + systemic / …
[19] = test system: mouse; details: Subchronic oral toxicity in rodents, b6c3f1, Feed, dose end: 13 week, group: systemic
[20] = systemic / pathology microscopic / stomach / acanthosis + systemic / pathology microscopic / stomach / hyperplasia + systemic / pathology …
[21] = group: developmental, systemic / in life observation / body weight / fetal weight
[22] = group: maternal, systemic / in life observation / body weight / body weight gain + systemic / in life observation / food consumption / food consumption + …
[23] = systemic / pathology microscopic / stomach / acanthosis + systemic / pathology microscopic / stomach / hyperkeratosis
[24] = systemic / pathology microscopic / stomach / acanthosis + systemic / pathology microscopic / stomach / hyperkeratosis + systemic / in life …
[25] = systemic / organ weight / kidney / relative to body weight + systemic / organ weight / liver / relative to body weight
[26] = systemic / organ weight / kidney / relative to body weight + systemic / organ weight / liver / relative to body weight + systemic / …
[27] = systemic / in life observation / body weight / body weight
[28] = systemic / in life observation / body weight / body weight + systemic / organ weight / kidney / absolute + systemic / organ weight / liver…
[29] = systemic / in life observation / body weight / body weight + systemic / in life observation / food consumption / food consumption + systemic…
[30] = systemic / clinical chemistry / alkaline phosphatase (alp/alk) / alkaline phosphatase (alp/alk) + systemic / clinical chemistry / …
[31] = systemic / clinical chemistry / albumin / albumin + systemic / clinical chemistry / alkaline phosphatase (alp/alk) / alkaline phosphatase (…
[32] = systemic / clinical chemistry / cholesterol / cholesterol
[33] = systemic / in life observation / body weight / body weight + systemic / in life observation / clinical signs / distended abdomens + systemic…
[34] = systemic / organ weight / kidney / relative to body weight
[35] = systemic / pathology gross / urinary bladder / stones
[36] = systemic / pathology gross / urinary bladder / stones + systemic / in life observation / body weight / body weight gain + systemic / …
[37] = systemic / in life observation / body weight / body weight gain + systemic / in life observation / food consumption / food consumption + …
[38] = systemic / in life observation / body weight / body weight gain
[39] = systemic / in life observation / body weight / body weight gain + systemic / pathology gross / urinary bladder / stones + systemic / …

**Q.** What does the source list for `CC(=O)OC1CC(C)OC(C)O1` (configuration not stated) [Dimethoxane]?
**A.** LEL [1]: 300 mg/kg/day; LOAEL [1]: 300 mg/kg/day; NEL [1]: 100 mg/kg/day; NOAEL [1]: 100 mg/kg/day; LEL [2]: 125 mg/kg/day; LOAEL [2]: 250 mg/kg/day; NEL [2]: < 125 mg/kg/day; NOAEL [2]: 125 mg/kg/day; LEL ([3]; systemic / pathology microscopic / stomach / acanthosis + systemic / pathology microscopic / stomach / hyperkeratosis + systemic / pathology…): 125 mg/kg/day; LOAEL [3, 20]: > 250 mg/kg/day; NOAEL [3, 20]: ≥ 250 mg/kg/day; LEL [4]: 500 mg/kg/day; LOAEL [4]: 500 mg/kg/day; NEL [4]: 250 mg/kg/day; NOAEL [4]: 250 mg/kg/day; LEL [5, 21]: 500 mg/kg/day; LOAEL [5, 21]: 500 mg/kg/day; NEL [5, 21]: 250 mg/kg/day; NOAEL [5, 21]: 250 mg/kg/day; LOAEL ([5]; group: maternal, systemic / in life observation / body weight / body weight gain + systemic / in life observation / food consumption / food consumption): 250 mg/kg/day; LEL [5, 22]: 250 mg/kg/day; NEL [5, 22]: 125 mg/kg/day; NOAEL [5, 22]: 125 mg/kg/day; LEL [6, 23]: 62 mg/kg/day; LOAEL [6, 23]: 250 mg/kg/day; NEL [6, 24]: 31 mg/kg/day; NOAEL [6, 24]: 125 mg/kg/day; LEL [7, 25]: 31 mg/kg/day; NEL [7, 25]: < 31 mg/kg/day; LOAEL [7, 26]: > 500 mg/kg/day; NOAEL [7, 26]: ≥ 500 mg/kg/day; LEL [8]: 250 mg/kg/day; LOAEL [8]: 250 mg/kg/day; NEL [8]: < 250 mg/kg/day; NOAEL [8]: < 250 mg/kg/day

**Q.** For `CO/C=C(/C(=O)OC)c1ccccc1Oc1cc(Oc2ccccc2C#N)ncn1` [Azoxystrobin], which LOAEL [9, 27] is on record?
**A.** Its LOAEL is 272 mg/kg/day.

**Q.** And the LEL [9, 28]?
**A.** The LEL was 272 mg/kg/day.

**Q.** And the NEL [9, 28]?
**A.** The NEL was 37.5 mg/kg/day.

**Q.** And the NOAEL [9, 28]?
**A.** Its NOAEL is 37.5 mg/kg/day.

**Q.** What about the NEL ([10]; systemic / clinical chemistry / aspartate aminotransferase (ast/sgot) / aspartate aminotransferase (ast/sgot) + systemic / clinical …) of the same compound?
**A.** Its NEL is 117 mg/kg/day.

**Q.** And the LOAEL [10, 29]?
**A.** The LOAEL was 82.4 mg/kg/day.

**Q.** What about the NOAEL [10, 29] of the same compound?
**A.** Its NOAEL is 18.2 mg/kg/day.

**Q.** And the LOAEL [11, 30]?
**A.** The LOAEL was 200 mg/kg/day.

**Q.** And the NEL [11, 30]?
**A.** The NEL was 3 mg/kg/day.

**Q.** What about the NOAEL [11, 30] of the same compound?
**A.** Its NOAEL is 25 mg/kg/day.

**Q.** What about the LEL ([11]; systemic / organ weight / liver / absolute + systemic / clinical chemistry / cholesterol / cholesterol + systemic / clinical chemistry / …) of the same compound?
**A.** Its LEL is 25 mg/kg/day.

**Q.** And the LOAEL [12, 31]?
**A.** Its LOAEL is 250 mg/kg/day.

**Q.** And the NOAEL [12, 31]?
**A.** Its NOAEL is 50 mg/kg/day.

**Q.** And the LEL [12, 32]?
**A.** Its LEL is 10 mg/kg/day.

**Q.** What about the NEL [12, 32] of the same compound?
**A.** Its NEL is < 10 mg/kg/day.

**Q.** What about the LOAEL [13, 33] of the same compound?
**A.** The LOAEL was 211 mg/kg/day.

**Q.** And the NOAEL [13, 33]?
**A.** The NOAEL was 20.4 mg/kg/day.

**Q.** What about the LEL [13, 34] of the same compound?
**A.** Its LEL is 22.4 mg/kg/day.

**Q.** What about the NEL [13, 34] of the same compound?
**A.** Its NEL is < 22.4 mg/kg/day.

**Q.** Which LEL [14] does the source give for `Nc1nc(N)nc(N)n1` [Melamine] here?
**A.** Its LEL is 875 mg/kg/day.

**Q.** What about the LOAEL [14] of the same compound?
**A.** Its LOAEL is > 875 mg/kg/day.

**Q.** What about the NEL [14] of the same compound?
**A.** Its NEL is 500 mg/kg/day.

**Q.** What about the NOAEL [14] of the same compound?
**A.** Its NOAEL is ≥ 875 mg/kg/day.

**Q.** What about the LEL [15, 35] of the same compound?
**A.** The LEL was 75 mg/kg/day.

**Q.** What about the LOAEL [15, 36] of the same compound?
**A.** Its LOAEL is > 600 mg/kg/day.

**Q.** And the NEL [15, 36]?
**A.** The NEL was 37.5 mg/kg/day.

**Q.** What about the NOAEL [15, 36] of the same compound?
**A.** The NOAEL was ≥ 600 mg/kg/day.

**Q.** What about the LEL [16, 27] of the same compound?
**A.** The LEL was 112 mg/kg/day.

**Q.** What about the NEL [16, 27] of the same compound?
**A.** The NEL was < 112 mg/kg/day.

**Q.** What about the LOAEL ([16]; systemic / pathology microscopic / kidney / inflammation + systemic / pathology gross / urinary bladder / stones) of the same compound?
**A.** Its LOAEL is 225 mg/kg/day.

**Q.** What about the LOAEL [17, 37] of the same compound?
**A.** Its LOAEL is > 900 mg/kg/day.

**Q.** And the NOAEL [17, 37]?
**A.** Its NOAEL is ≥ 900 mg/kg/day.

**Q.** And the LEL [17, 35]?
**A.** Its LEL is 300 mg/kg/day.

**Q.** What about the NEL [17, 35] of the same compound?
**A.** The NEL was < 300 mg/kg/day.

**Q.** And the LEL [18]?
**A.** The LEL was 338 mg/kg/day.

**Q.** What about the LOAEL [18] of the same compound?
**A.** The LOAEL was 338 mg/kg/day.

**Q.** What about the NEL [18] of the same compound?
**A.** Its NEL is < 338 mg/kg/day.

**Q.** And the NOAEL [18]?
**A.** The NOAEL was < 338 mg/kg/day.

**Q.** And the LEL [19, 38]?
**A.** Its LEL is 900 mg/kg/day.

**Q.** And the NEL [19, 38]?
**A.** The NEL was < 900 mg/kg/day.

**Q.** And the LOAEL [19, 39]?
**A.** The LOAEL was > 2700 mg/kg/day.

**Q.** What about the NOAEL [19, 39] of the same compound?
**A.** Its NOAEL is ≥ 2700 mg/kg/day.
